Patent publication US20080108645A1, “Dihydrotetrabenazines And Pharmaceutical Compositions Containing Them” (CAMBRIDGE LABORATORIES, (IRELAND), LTD., priority 2004, published 2008)
“Also recorded” adds a separate entry of the source.

Experiments:
Monoamine Oxidase MAO-B = biological target: T1, Monoamine Oxidase MAO-B (Homo sapiens, UniProt P27338); test: Monoamine Oxidase MAO-B inhibition; type: biochemical; conditions: for inhibition at 10 µM: read-out: Percentage Inhibition of Enzyme Activity, MAO-B
T1 sequence (P27338 1-520): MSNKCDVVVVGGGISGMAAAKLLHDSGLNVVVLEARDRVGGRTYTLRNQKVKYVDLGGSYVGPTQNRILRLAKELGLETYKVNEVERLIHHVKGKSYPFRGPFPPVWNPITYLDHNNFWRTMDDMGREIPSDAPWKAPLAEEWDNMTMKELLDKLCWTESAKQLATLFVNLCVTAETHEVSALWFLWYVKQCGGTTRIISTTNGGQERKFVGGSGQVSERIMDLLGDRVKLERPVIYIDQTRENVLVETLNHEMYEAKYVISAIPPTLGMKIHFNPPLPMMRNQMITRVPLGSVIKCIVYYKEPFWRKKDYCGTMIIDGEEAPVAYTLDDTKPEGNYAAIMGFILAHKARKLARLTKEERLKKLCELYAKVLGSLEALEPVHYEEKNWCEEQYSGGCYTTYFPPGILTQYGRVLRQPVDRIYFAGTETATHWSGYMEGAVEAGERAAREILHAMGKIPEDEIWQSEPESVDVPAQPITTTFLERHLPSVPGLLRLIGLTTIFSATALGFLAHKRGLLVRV
Method: Isomers B and C were tested for their ability to inhibit enzymes involved in the processing of monoamines in the CNS, namely Catechol O-Methyl Transferase (COMT), Monoamine Oxidase A and Monoamine Oxidase B. The assay methods used are described below and the results are set out in Table 7. (a) Catechol O-Methyl Transferase (COMT) Inhibition • Source: […] None • Incubation time: 60 minutes @ 37° C. • Incubation buffer: 100 mM potassium phosphate, 10 mM MgCl2, 3 mM DTT containing 12 units/ml adenosine deaminase, pH 7.4 • Quantitation method: […]

Dopamine D3 Receptor = biological target: T2, Dopamine D3 Receptor (Homo sapiens, UniProt P35462); test: Dopamine D3 receptor radioligand binding; conditions: 10 μM; 0.7 nM [3H] Spiperone
T2 construct: expressed in transfected cells; host or cells: CHO cells
Method: (a) Adrenergic α2A Receptor: • Reference: S. Uhlen et al. J. Pharmacol. Exp. Ther., 271:1558-1565 (1994) • Source: Human recombinant insect Sf9 cells • Ligand: 1 nM [^3H] […] J. Pharmacol., 99:803-809, (1990) • Source: Wistar rat cerebral cortex • Ligand: 2 nM [3H]

5-HT1D/1B receptors = test: 5-HT1D/1B binding assay, [N-methyl 3H] GR-125743, rat forebrain P2 membranes
Method: The ability of Compound B and Compound C to bind to 5-HT1D/1B receptors was tested using an assay based on the one described by Millan, M J et al. (2002) Pharmacol. Biochem. Behav. […] [N-methyl ^3H] GR-125743 was used as the radioligand for both 5-HT1D and 5-HT1B receptors. Adult SD rat forebrain P2 membranes (Chazot et al., 1993) were used for the assay. The assay buffer used was 50 mM Tris-HCl pH 7.7 at room temperature containing 4 mM calcium chloride, 0.1% ascorbic acid and 10 μM pargyline. 5-HT (10 μM) was used to define non-specific binding. Incubation with 1 nM [^3H] GR-125743 was carried out for 1 hour at room temperature, and the reaction was terminated by rapid filtration using a Brandel Harvester through GF/B filters pre-soaked in 0.1% polyethyleneimine, followed by three washes with ice-cold buffer (supplemented with 0.1% BSA). A dose range of 10^−10-10^−4M was utilised. The resultant competition curves were analysed using the GraphPad Prism 4 package.

Human HEK-293 cells = test: Cellular assay: inhibition of [3H] serotonin uptake by human embryonic kidney cells; type: cell-based; conditions: for inhibition at 10 µM: Homo sapiens, HEK293
Method: The ability of isomers B and C to inhibit uptake of serotonin (5-hydroxytryptamine) by human embryonic kidney cells was measured using the following assay conditions: […]

VMAT1 = biological target: T3, VMAT1 (Rattus norvegicus, UniProt Q01818); test: VMAT1 functional assay: [3H] dopamine uptake, rat adrenal chromaffin cell vesicles in presence of 10 μM tetrabenazine; type: biochemical; conditions: for IC50: in the presence of 10 μM Tetrabenazine, read-out: IC50, inhibition of [3H] dopamine uptake
T3 construct: The vesicular fraction was isolated in an identical fashion to that described for the brain preparation; from tissue; host or cells: SD rat adrenal medulla chromaffin cells, vesicular fraction
T3 sequence (Q01818 1-521): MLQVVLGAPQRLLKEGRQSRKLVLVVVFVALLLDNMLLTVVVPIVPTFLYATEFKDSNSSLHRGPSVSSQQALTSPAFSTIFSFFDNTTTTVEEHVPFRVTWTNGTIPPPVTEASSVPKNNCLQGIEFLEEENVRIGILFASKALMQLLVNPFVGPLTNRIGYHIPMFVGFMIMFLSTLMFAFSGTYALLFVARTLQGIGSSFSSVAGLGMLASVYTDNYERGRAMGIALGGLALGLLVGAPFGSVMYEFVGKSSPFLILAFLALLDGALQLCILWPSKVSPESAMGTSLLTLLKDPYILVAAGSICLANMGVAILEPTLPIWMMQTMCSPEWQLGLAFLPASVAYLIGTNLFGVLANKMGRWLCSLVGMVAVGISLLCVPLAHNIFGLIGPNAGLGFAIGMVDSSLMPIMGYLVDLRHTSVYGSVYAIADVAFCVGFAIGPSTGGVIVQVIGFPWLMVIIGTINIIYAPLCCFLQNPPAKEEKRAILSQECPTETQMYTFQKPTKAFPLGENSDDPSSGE
Method: Thus, adrenal glands were dissected in ice cold PBS, the capsule and cortex of the glands removed and the remaining medullae were minced. After multiple washes with PBS, the tissue was incubated with Ca2+-free collagenase IA solution (250 U/ml) for 30 minutes at 30° C. with gentle stirring. The digested tissue was rinsed three times and the dissociated cells were centrifuged at 3000 rpm to form a pellet, which was resuspended in PBS. The vesicular fraction was isolated in an identical fashion to that described for the brain preparation.
100 μl (approx. 2.5 μg protein) of synaptic vesicles were preincubated with increasing concentrations of test compound (prepared as previously described for binding assay) for 30 minutes (concentration range 10^−9 M-10^−4 M). The assay was performed for 3 minutes at 30° C. in the assay buffer (25 mM HEPES, 100 mM potassium tartrate, 1.7 mM ascorbic acid, 0.05 mM EGTA, 0.1 mM EDTA, 2 mM ATP-Mg^2+, pH 7.5), in the presence of [^3H] dopamine (30 nM final concentration). [^3H] dopamine uptake was measured in the presence of 10 μM tetrabenazine (selectively blocks VMAT2 at this concentration). Non-specific uptake was determined by measuring vesicular [^3H] dopamine uptake at 4° C. The reaction was then terminated by addition of ice-cold buffer assay buffer pH 7.5, containing 2 mM MgSO4 instead of 2 mM ATP-Mg^2+, and rapid filtration achieved through Whatman filters soaked in 0.5% polyethyleneimine. The filters were washed three times with cold buffer using a Brandel Harvester and the radioactivity trapped on the filters was counted using a liquid scintillation counter.

T2 sequence (P35462 whole entry): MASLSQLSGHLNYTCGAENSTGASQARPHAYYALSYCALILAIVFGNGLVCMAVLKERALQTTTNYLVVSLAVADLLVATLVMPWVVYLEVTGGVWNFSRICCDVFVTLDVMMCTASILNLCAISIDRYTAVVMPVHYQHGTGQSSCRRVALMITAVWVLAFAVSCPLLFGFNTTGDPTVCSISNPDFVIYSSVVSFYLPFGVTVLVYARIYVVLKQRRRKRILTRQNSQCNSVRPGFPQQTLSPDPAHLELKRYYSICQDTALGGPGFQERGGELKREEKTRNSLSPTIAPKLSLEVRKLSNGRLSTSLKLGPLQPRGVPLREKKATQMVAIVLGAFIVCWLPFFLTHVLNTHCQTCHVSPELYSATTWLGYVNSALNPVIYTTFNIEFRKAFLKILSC

SMILES | inhibitory activity against monoamine oxidase isoform B (in words) (Monoamine Oxidase MAO-B) | inhibition at 10 µM (Monoamine Oxidase MAO-B) [%] | Percentage Inhibition of Specific Binding, D3 Receptor (Dopamine D3 Receptor) [%] | affinity/activity at 5-HT1D/1B (in words) (5-HT1D/1B receptors) | mode of action on serotonin uptake (in words) (Human HEK-293 cells) | inhibition at 10 µM (Human HEK-293 cells) [%] | affinity for VMAT1 (in words) (VMAT1) | IC50 (VMAT1) [µM]
COc1cc2c(cc1OC)[C@H]1C[C@H](O)[C@@H](CC(C)C)CN1CC2 (single isomer, unassigned) [Isomer B, 3,11b-cis-dihydrotetrabenazine] | no inhibitory activity | -5 | 7 | low affinity for 5-HT1D/1B receptors; also recorded: no inhibitory activity | antagonist | 56 | low affinity for VMAT-1 | > 10
COc1cc2c(cc1OC)[C@H]1C[C@@H](O)[C@@H](CC(C)C)CN1CC2 (single isomer, unassigned) [Isomer C, 3,11b-cis-dihydrotetrabenazine] | no inhibitory activity | -5 | 9 | low affinity for 5-HT1D/1B receptors; also recorded: no inhibitory activity | antagonist | 86 | low affinity for VMAT-1 | > 10
